{"source": "paper PMC7838189", "about": "“Natural podophyllotoxin analog 4DPG attenuates EMT and colorectal cancer progression via activation of checkpoint kinase 2” (Cell Death Discovery, 2021)", "key": {"HCT-116/5-FU-R cells": {"test_system": "HCT-116/5-FU-R cells", "assay": "Immunocytochemistry of Vimentin", "format": "cell-based", "conditions": "300 nM, 48 h", "source_text": "(§1) 4DPG, a podophyllotoxin class of natural product anticancer compound (Supplementary Fig. S2A) has been recently described by our research group for its potent antitumor and anti-metastatic properties against aggressive cancers[31],[32]. Further, 4DPG augments phosphorylation and activation of Chk2 (Thr68) leading to suppression of EMT and invasiveness of p53-defective cancer cells. To investigate the effect of 4DPG on phosphorylation and expression levels of Chk2 in HCT-116/5-FU-R, SW-620/5-FU-R, and HT-29/5-FU-R cells, we treated these cells for 48 h with increasing concentrations of the compound, and whole-cell lysates were subjected to western blotting analysis. […] To determine the effect of 4DPG on the invasion abilities of these 5-FU-R cells, we performed in situ fluorescent gelatin degradation assay following our pre-standardized protocol[31],[37]. In physiological conditions, this assay mimics the extracellular matrix degradation by aggressive tumor cells undergoing invasion–metastasis process.\n(§2) Fig. 2 4DPG activates Chk2 and attenuates EMT in 5-FU-R CRC cells. […] G Quantification of the area of degradation through Image J software. n = 3, error bars, mean ± SD; ***P < 0.001. […]"}, "SW-620/5-FU-R cells": {"test_system": "SW-620/5-FU-R cells", "assay": "In situ fluorescent gelatin degradation assay (invadopodia)", "format": "cell-based", "conditions": "48 h, vs vehicle", "source_text": "as §1, §2"}, "Solubility determination": {"assay": "Solubility determination", "format": "physicochemical", "description": "Solubility and distribution coefficient are among the major physicochemical properties of a drug that greatly determine its absorption in physiological compartments. […] The distribution coefficient (logD, pH 7.4) of 4DPG was determined to be 0.815 ± 0.19, which indicates the slightly lipophilic nature of the molecule. For administration to animals, the appropriate quantity of 4DPG was formulated in the pre-calculated volume of saline with the help of a solubilizer (Tween-80). Next, to assess the hemocompatibility of 4DPG and establish if the compound could be considered safe for intravenous (i.v.) administration, we performed in vitro hemolysis assay by incubating the RBCs with increasing concentrations of the molecule.\nThe distribution coefficient, solubility, and hemocompatibility of 4DPG was determined adopting our previously described protocol[37],[40]. For hemolysis assay, increasing concentrations (5, 10, and 20 µg/mL) of 4DPG were employed. Distilled water (DW) and PBS were considered as […]."}, "[1]": {"test_system": "tumor tissues of orthotopic rat colorectal carcinoma", "assay": "Western blotting of tumor tissues", "format": "in vivo, Wistar rats", "conditions": "4DPG-treated group vs saline", "description": "We adhered to the previously published protocol for western blotting. To sum up, cells were exposed to the respective treatments (mentioned in figure legends). Post-treatment, cells were lysed with cell lysis buffer, and cell lysates were collected after centrifugation. Bradford assay was performed to quantify the protein concentration. Equal amount of protein was taken from each sample to carry out the western blot analysis. SDS-PAGE was employed to separate the proteins that were later transferred onto PVDF membranes (Millipore, Billerica, MA). Next, the membranes were blocked with 5% skim milk and subsequently incubated with the specific primary antibodies (1:1000 dilution), either for 3 h at room temperature or overnight at 4 °C. Later, the blots were washed thoroughly with TBST and probed with the respective secondary antibodies (1:2000 dilution) coupled with horseradish peroxidase for 1 h. Following thorough washing, the membranes were visualized using enhanced chemiluminescence reagent (Millipore) and captured onto Biomax light film (The Eastman Kodak Co., Rochester, NY)."}}}
{"smiles": "COc1cc([C@@H]2c3cc4c(cc3C[C@H]3COC(=O)[C@@H]32)OCO4)cc(OC)c1O[C@@H]1O[C@H](CO)[C@@H](O)[C@H](O)[C@H]1O", "note": "[4DPG, 4′-demethyl-deoxypodophyllotoxin glucoside]", "values": [{"measurement": "Vimentin expression level (immunocytochemistry)", "setting": "HCT-116/5-FU-R cells", "value": "considerable decrease"}, {"measurement": "invadopodia formation and area of degradation over the gelatin matrix", "setting": "SW-620/5-FU-R cells", "value": "significantly reduced"}, {"measurement": "solubility", "setting": "Solubility determination; simulated gastric fluid (SGF, pH 1.2)", "value": "539.38 ± 91", "unit": "µg/mL"}, {"measurement": "solubility", "setting": "Solubility determination; simulated intestinal fluid (SIF, pH 6.8)", "value": "712.92 ± 172", "unit": "µg/mL"}, {"measurement": "activation of p53 in tumor tissues", "setting": "[1]", "value": 5.82, "unit": "fold"}, {"measurement": "activation of p-Chk2 (Thr68) in tumor tissues", "setting": "[1]", "value": 3.54, "unit": "fold"}, {"measurement": "downmodulation of Vimentin in tumor tissues", "setting": "[1]", "value": 8.3, "unit": "fold"}, {"measurement": "downmodulation of p-Vimentin (ser38) in tumor tissues", "setting": "[1]", "value": 18.2, "unit": "fold"}]}
